Like-named read-outs stand apart in the source and are kept apart here.
What was measured:
[1] = minimum temperature for forming a kinetically stable 50% by weight solution, cooled 30° C./h to precipitation, reheated 1° C./h until clear, higher Tsol = lower solubility
Description: In each case, the solubility was calculated to refer to pure MGDA, without hydrate water. The solubility of inventive mixtures and of comparison experiments was determined with an apparatus that allowed heating and cooling down liquid solutions. […] Then, the slurry of crystals of MGDA so obtained was again heated at a speed of 1° C./h until a clear solution was obtained. The slurry/solution was checked for solid particles by visible light scattering detection. […] A higher temperature Tsol correlates with a lower solubility at ambient temperature.

[2] = ambient temperature
Description: The following tolerance tests were performed: 25 g of a 40% by weight aqueous solution of the respective inventive mixture (or of racemic MGDA) were mixed under one hour of stirring with the amount of solid NaOH beads according to table 5. The mixture so obtained was stored at ambient temperature over the period of up to 96 hours. Then, the appearance was characterized by visual inspection.

[3] = aqueous solution, room temperature; cited from earlier work
[4] = NaOH added 0 g to 25 g of 40% by weight aqueous solution
[5] = NaOH added 0.5 g to 25 g of 40% by weight aqueous solution
[6] = NaOH added 1.0 g to 25 g of 40% by weight aqueous solution
[7] = NaOH added 1.5 g to 25 g of 40% by weight aqueous solution, * = after 48 hours
[8] = NaOH added 2.0 g to 25 g of 40% by weight aqueous solution, * = after 48 hours
[9] = NaOH added 2.5 g to 25 g of 40% by weight aqueous solution, ** = immediately after addition of NaOH

Row | SMILES | Appearance of test solutions after 96 h of storage [2, 4] | Appearance of test solutions after 96 h of storage [2, 5] | Appearance of test solutions after 96 h of storage [2, 6] | Appearance of test solutions after 96 h of storage [2, 7] | Appearance of test solutions after 96 h of storage [2, 8] | Appearance of test solutions after 96 h of storage [2, 9] | further results
1 | CC(C(=O)[O-])N(CC(=O)[O-])CC(=O)[O-].[Na+].[Na+].[Na+] (stereo not shown) [MGDA: 50% ee, methyl glycine diacetic acid (MGDA)] | clear liquid | clear liquid | clear liquid | clear liquid | clear liquid | clear liquid | Tsol ([1]; listed as 50.0): 68.1 °C
2 | CC(C(=O)[O-])N(CC(=O)[O-])CC(=O)[O-].[Na+].[Na+].[Na+] (stereo not shown) [ee value 20.0, methyl glycine diacetic acid (MGDA)] |  |  |  |  |  |  | Tsol ([1]; listed as 20.0): 74.0 °C
3 | CC(C(=O)[O-])N(CC(=O)[O-])CC(=O)[O-].[Na+].[Na+].[Na+] (stereo not shown) [ee value 70.0, methyl glycine diacetic acid (MGDA)] |  |  |  |  |  |  | Tsol ([1]; listed as 70.0): 59.5 °C
4 | CC(C(=O)[O-])N(CC(=O)[O-])CC(=O)[O-].[Na+].[Na+].[Na+] (stereo not shown) [ee value 10.1, methyl glycine diacetic acid (MGDA)] |  |  |  |  |  |  | Tsol ([1]; listed as 10.1): 74.5 °C
5 | CC(C(=O)[O-])N(CC(=O)[O-])CC(=O)[O-].[Na+].[Na+].[Na+] (stereo not shown) [ee value 97.7, methyl glycine diacetic acid (MGDA), reference compound] |  |  |  |  |  |  | Tsol ([1]; listed as 97.7): 37.0 °C
6 | CC(C(=O)[O-])N(CC(=O)[O-])CC(=O)[O-].[Na+].[Na+].[Na+] (racemic) [Racemic MGDA, methyl glycine diacetic acid (MGDA), reference compound] | clear liquid | clear liquid | clear liquid | turbid* liquid | turbid* liquid | turbid, precipitate** | concentration of solution that can be made and stored [3]: about 40 % by weight; Tsol ([1]; listed as zero): 103.8 °C
